The record followed here is publication PMC12037858 (Scientific Reports, 2025).

This assay concerns the target Fascin (Homo sapiens, UniProt Q16658). The assay can be described thus: Image-based F-actin bundling assay. It is filed as biochemical. The note with it: 400 µM compound.

Regarding `O=C(Nc1ccncc1)c1cn(Cc2ccc(Cl)c(Cl)c2)c(=O)c2cnn(C3CCNCC3)c12` [BDP-13176], the “Inhibition of fascin-mediated F-actin bundle formation” value is on record as “prevents fiber formation”.
